Measured values from the Kinase Knowledgebase extract (Sharma et al. 2016).

Columns and labels:
MAPK14 (human) [1] = target: MAPK14 (human) (UniProt Q16539); test: Inhibition of IL-6 Release in LPS Stimulated Whole Blood Cells
MAPK14 (human) [2] = target: MAPK14 (human) (UniProt Q16539); test: Inhibition of IL-1 beta Release in LPS Stimulated Whole Blood Cells
MAPK14 (human) [3] = target: MAPK14 (human) (UniProt Q16539); test: Inhibition of IL-1beta Production in LPS Stimulated PBMC
MAPK14 (human) [4] = target: MAPK14 (human) (UniProt Q16539); test: Inhibition of MAPK14 Kinase Activity
MAPK14 (human) [5] = target: MAPK14 (human) (UniProt Q16539); test: Inhibition of TNF-alpha Release in LPS Stimulated Whole Blood Cells
MAPK14 (human) [6] = target: MAPK14 (human) (UniProt Q16539); test: Inhibition of TNF-alpha Production in LPS Stimulated PBMC

MAPK14 (human), sequence (Q16539 whole entry, looked up): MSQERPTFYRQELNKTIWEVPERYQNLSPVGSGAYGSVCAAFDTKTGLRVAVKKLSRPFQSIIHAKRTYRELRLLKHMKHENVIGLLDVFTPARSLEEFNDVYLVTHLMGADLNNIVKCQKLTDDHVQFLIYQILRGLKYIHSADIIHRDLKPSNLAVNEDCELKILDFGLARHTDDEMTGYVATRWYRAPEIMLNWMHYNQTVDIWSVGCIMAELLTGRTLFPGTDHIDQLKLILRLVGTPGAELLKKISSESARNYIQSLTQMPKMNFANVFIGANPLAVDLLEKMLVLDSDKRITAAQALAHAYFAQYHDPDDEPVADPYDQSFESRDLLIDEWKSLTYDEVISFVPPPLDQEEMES

| IC50 (MAPK14 (human) [1]) [nM] | IC50 (MAPK14 (human) [2]) [nM] | IC50 (MAPK14 (human) [3]) [nM] | IC50 (MAPK14 (human) [4]) [nM] | IC50 (MAPK14 (human) [5]) [nM] | IC50 (MAPK14 (human) [6]) [nM] | Structure (SMILES) |
| --- | --- | --- | --- | --- | --- | --- |
| 11000 | 12200 | 50 | 1000 | 20000 | 50 | CN(C)C=NC(=O)OCc1ccc(N(C(N)=O)c2c(F)cccc2F)nc1-c1ccc(F)cc1F |
| 800 | 2200 |  | 5000 | 4300 |  | CN(C)C=NC(=O)OCc1ccc(N(C(=O)N=CN(C)C)c2c(F)cccc2F)nc1-c1ccc(F)cc1F |
| 83 | 140 | 12 | 31 | 55 | 22 | CC(C)[C@H](N)C(=O)OCCNC(=O)OCc1ccc(N(C(N)=O)c2c(F)cccc2F)nc1-c1ccc(F)cc1F |
